This is an account of results in PubChem BioAssay (NCI).

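These data come from cells grown in 96-well plates and exposed to compound for 48 hours at five concentrations. The concentration for 50% growth inhibition is given as GI50. Definition used: TGI = concentration required for complete inhibition of growth.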 Where only a bound is given, the exact number is not on record here.

Holding throughout (assay): DTP human tumour cell line panel, 48 h
Test [1] concerns COLO 205 colon.
Test [2] has as its system EKVX NSCLC.
Test [3] has as its system HOP-62 NSCLC.
Test [4] relates to MALME-3M melanoma.
The subject of test [5] is OVCAR-4 ovarian.
Test [6] has as its system RXF 393 renal.
For test [7], the system named is SF-539 CNS.
The test system of test [8] is SK-MEL-28 melanoma.
For test [9], the system named is SK-OV-3 ovarian.
Test [10] deals with U251 CNS.

For the compound `CC(C)(Oc1ccc(/C=C/C(=O)c2ccc(Cl)cc2)cc1)C(=O)Nc1c(Cl)cccc1Cl`, the concentration for total growth inhibition (TGI) (usually the concentration giving total growth inhibition) is 40.2 µM in test [1]; above 100 µM in test [2]; above 100 µM in [3]; 40.4 µM in test [4]; above 100 µM in [5]; 36.9 µM in test [6]. Moreover, the total growth inhibition concentration (TGI) in [7] was 28.1 µM; in test [8], 30.3 µM; in [9], above 100 µM; in [10] it was 26.7 µM.

Turning to `CCOC(=O)c1cc2c3c(c(O)c(OC)c2s1)N(C(=O)c1cc2c4c(c(O)c(OC)c2s1)N(C(C)=O)CC4)CC3`, the concentration for total growth inhibition (TGI) in [1], in [2], in test [3], in [4], in test [5] and in test [6] was above 100 µM each time. Also, the TGI in [7], in [8], in test [9] and in test [10] was above 100 µM throughout.

As to `O=C(O)[C@@H](Cc1ccc2ccccc2c1)NC(=O)n1c2ccccc2c2ccccc21`, the GI50 – broadly, the concentration that inhibits growth by half – in test [1] is 2550 nM; in [2], 5.56 µM; in [3] it was 3.21 µM; in test [4] it was 4.25 µM; in [5], 6.8 µM; in test [6] it was 1570 nM. Moreover, the GI50 in test [7] is 1990 nM; in test [8], 11.4 µM; in test [9], 5.64 µM; in test [10], 2890 nM. Besides, the concentration for total growth inhibition (TGI) in test [1] was 5.29 µM; in test [2], 62.2 µM; in test [3], 15.3 µM; in test [4], 31.5 µM; in test [5], above 100 µM; in test [6], 7.15 µM. Moreover, the total growth inhibition concentration (TGI) in [7] was 6.61 µM; in [8], 46.8 µM; in test [9], 44.5 µM; in test [10] it was 21.2 µM.

`O=C(O)[C@H](c1ccccc1)[C@@H](C(=O)O)c1ccccc1`: the TGI in test [1], in test [2], in [3], in test [4], in test [5] and in test [6] was above 100 µM throughout. In addition, the TGI in test [7], in [8], in [9] and in [10] was above 100 µM each time.

As to `O=C(O)c1ccccc1/C=N/N=C1c2ccccc2-c2ccccc21`, the TGI in test [1] was above 100 µM; in [2], above 100 µM; in [3], above 100 µM; in test [4], above 100 µM; in test [5], above 100 µM; in test [6] it was 75.8 µM. The TGI in test [7] was above 100 µM; in test [8] it was above 100 µM; in test [9], above 100 µM; in test [10], 55.6 µM.

With `c1c[nH]c(CN2CCOCC2)n1`, the TGI in [1], in [2], in test [3], in test [4], in test [5] and in test [6] was above 100 µM in each case. Also, the TGI in [7], in test [8], in test [9] and in test [10] was above 100 µM throughout.

As for `COc1ccc(C(=O)NCCN(C)C)c2nc3ccccc3nc12`, the TGI was above 26.1 µM in [1]; 33.2 µM in test [2]; 9.06 µM in [3]; 6.8 µM in [4]; 16.8 µM in test [5]; 25.4 µM in test [6]. The TGI in [7] is 17.6 µM; in test [8] it was 16.8 µM; in test [9], above 63.2 µM; in [10] it was 40.9 µM.

Regarding `CC(=O)c1ccc(O)c(CN(C2CCCCC2)C2CCCCC2)c1O`, the TGI in [1], in test [2], in [3], in [4], in test [5] and in test [6] was above 100 µM in each case. Further, the total growth inhibition concentration (TGI) in test [7], in test [8], in [9] and in test [10] was above 100 µM throughout.

For the compound `Cc1ccc(-c2nc3nc(-c4ccc(F)cc4)nc(N4CCCNCC4)c3o2)cc1`, the GI50 in [1] was 2030 nM; in test [2], 1.78 µM; in [3], 1.74 µM; in test [4], 1.71 µM; in test [5], 1.83 µM; in [6], 1590 nM. Also, the GI50 in [7] was 1660 nM; in test [8] it was 1.79 µM; in test [9], 1.87 µM; in test [10], 1330 nM. The TGI came to 4.07 µM in test [1]; 3.34 µM in test [2]; 3.51 µM in test [3]; 3.21 µM in [4]; 3.25 µM in test [5]; 3.11 µM in test [6]. Moreover, the TGI came out at 3.04 µM in test [7], 3.23 µM in test [8], 3.37 µM in test [9] and 2.83 µM in test [10].

As for `C=C(C)C1C/C=C(/C)CCCC2(CCC3=C(CC(C(=C)C)C/C=C(/C)CCC3)O2)C(=O)C1` (stereo not given), the TGI in test [1], in test [2], in test [3], in test [4], in [5] and in test [6] was above 100 µM in each case. Moreover, the TGI in test [7], in [8], in test [9] and in test [10] was above 100 µM each time.

With `O=C1OCC2=C1C(c1ccccc1)c1cc3c(cc1N2CCO)OCO3` (stereo not given), the GI50 was 2710 nM in test [1]; 14 µM in [2]; 4.08 µM in test [3]; above 50 µM in test [4]; 4.38 µM in test [5]; 8030 nM in [6]. In addition, the GI50 in [7] is 2410 nM; in test [8] it was above 50 µM; in [9] it was 8.28 µM; in test [10] it was 3010 nM. Further, the TGI in test [1] is 17.1 µM; in test [2], above 50 µM; in [3], above 50 µM; in test [4], above 50 µM; in test [5], above 50 µM; in test [6] it was 35.7 µM. In addition, the TGI in [7], in test [8], in test [9] and in [10] was above 50 µM each time.
